Assay: BKC / BEZ release assay from polymer film with aqueous BPB solution
Type: physicochemical
Details: for release from 0.45% biocide coating without copolymer upon addition of the BPB solution: reference, no polymer
Method: The different 5 wt % polymer formulations were supplemented with 0.45 wt % BKC and 20 μl coated to the first well of each row of a 96-well plate. After evaporation of the solvent (2-propanol), 100 μl of an aqueous BPB ([…]) solution (25×10^−3 mmol/L) was added to the coated wells and the plate was incubated for 30 seconds at room temperature. Next, the aqueous phase was removed from the well and the formation of blue BPB-BKC complexes was assessed by visual inspection. This process was repeated until blue BPB-BKC complexes were no longer observed, and the number of repeated BPB incubation steps was recorded.
The slow release properties of the PVPM20, PVPMDM, PVPMEM and PVPDDM co-polymer formulations were verified in a BKC and a BEZ release test that were performed in 96-well plates. The different polymer formulations (i.e. PVPM20-85:15, PVPM20-80:20, PVPM20-65:35, PVPMDM-60:40, PVPMDM-75:25, PVPMEM-80:20 and PVPDDM-80:20 in 2-propanol at 2.5 wt % were supplemented with 0.45 wt % BKC or BEZ. 20 μl was coated to the first well of each row of a 96-well plate. After evaporation of the 2-propanol solvent, 100 μl of an aqueous BPB solution (25×10^−3 mmol/L) was added to the coated wells and the plate was incubated for 30 seconds at room temperature. BPB forms a blue complex with free BKC and free BEZ when it is released from the polymer film into an aqueous solution. Of note, the BPB-BKC or BPB-BEZ complex is blue, whereas the BPB solution itself is purple (20). Next, the aqueous phase was removed from the well and the formation of blue BPB-BKC or BPB-BEZ complexes was assessed by visual inspection. This process was repeated until blue BPB-BKC complexes were no longer observed, and the number of repeated BPB incubation steps was recorded.
The number of cycles needed to release readily detectable amounts of BKC or BEZ was used as a measure to assess the BKC-retaining or BEZ-retaining properties of the different polymer formulations.

Molecule	Test1 (BKC): Number of incubations after which BKC was no longer detectable (0.45 wt % BKC, 30 seconds incubations with aqueous BPB solution, room temperature)	release from 0.45% biocide coating without copolymer upon addition of the BPB solution	Test2 (BEZ): Number of incubations after which BEZ was no longer detectable (0.45 wt % BEZ, 30 seconds incubations with aqueous BPB solution, room temperature)
benzalkonium chloride [BKC only]	1x	dissolved instantaneously	
CC(C)(C)CC(C)(C)c1ccc(OCCOCC[N+](C)(C)Cc2ccccc2)cc1 [BEZ only, benzethonium chloride]		dissolved instantaneously	1x

Source: patent publication US11291625B2, “Antimicrobial compositions and methods for reducing microbial contamination” (PolyVation B.V., priority 2015, dated 2022)
